{
  "source": "paper PMC9694494",
  "about": "“Resveratrol/Hydrazone Hybrids: Synthesis and Chemopreventive Activity against Colorectal Cancer Cells” (Pharmaceutics, 2022)",
  "assay_type_in_all_cases": "cell-based, human",
  "key": {"[1]": {"system": "SW620 cells", "test": "Cell cycle analysis (PI flow cytometry), SW620", "settings": "SW620, 48 h treatment", "description": "(§1) Cell staining with the fluorescent propidium iodide (PI) was used to measure cell cycle distribution. The assays were carried out following the previous methodology described by Nicoletti et al. (1991). Briefly, 2.5 × 10^5 cells/well were seeded in 6-well tissue culture plates at 37 °C and 5% CO2. After 24 h of adherence, cells were treated during 48 h with hybrids 6e and 7, together with the vehicle control. At the end of each treatment, cells were scraped, and the centrifuged pellet was resuspended in 1.8 mL of 70% ethanol at 4 °C to fix the cells overnight. Then, after centrifugation, cells were washed twice in versene buffer to completely remove the alcohol, besides, they were further resuspended in 300 µL of PBS containing 0.25 mg/mL RNAse (Type I-A, Sigma-Aldrich, Darmstadt, Germany) and 0.1 mg/mL PI. After the incubation in the dark (for 30 min at room temperature), 10,000 events were analyzed with a FACS Canto II flow cytometer and the software BD FACS Diva 6.1.3. (BD Biosciences, San Jose, CA, USA). The PI fluorescence signal was analyzed with excitation at 488 nm (using a Sapphire laser), and detection at 610 nm. The cell cycle model was fixed with FlowJo 7.6.2 (Ashland, OR, USA), applying the Dean-Jett-Fox model."}, "[2]": {"system": "SW480 cells", "test": "Cell death induction (Annexin-V/FITC and PI flow cytometry), SW480", "settings": "SW480, 48 h exposure", "description": "(§2) Flow cytometric analysis using a double fluorescent staining with Annexin-V/FITC and propidium iodide (Roche Diagnostics) was used to evaluate phosphatidylserine exposure and membrane damage. Colon cancer cells (SW480 and SW620) were seeded at 2.5 × 10^5 in each 6-well plate and treated for 48 h. […] At the end of each treatment, cells were scraped and centrifuged. The pellet was resuspended in versene buffer with the fluorescent dyes and incubated for 20 min in darkness. Data were analyzed with FlowJo 7.6.2 (Ashland, OR, USA). Cells with double-positive staining for Annexin-V and PI were considered late apoptotic or dead cells, while the single staining with Annexin-V/FITC (Annexin-V/FITC positive) or propidium iodide (PI positive) was considered for early apoptotic or necrotic cells, respectively. Assays were performed twice."}, "[3]": {"system": "SW620 cells", "test": "Cell death induction (Annexin-V/FITC and PI flow cytometry), SW620", "settings": "SW620, 48 h exposure", "description": "as §2"}, "[4]": {"system": "SW480 cells", "test": "Cell cycle analysis (PI flow cytometry), SW480", "settings": "SW480, 48 h treatment", "description": "as §1"}},
  "data": [
    {"molecule": "O=C(N/N=C/c1c(O)cc(O)cc1/C=C/c1ccc(O)cc1)c1ccncc1", "note": "[compound 7, N′-((E)-2,4-dihydroxy-6-((E)-4-hydroxystyryl)benzylidene)isonicotinohydrazide]", "values": [
      {"measurement": "Cell cycle distribution Sub G0/G1", "setting": "[1]", "result": 20.60, "unit": "%"},
      {"measurement": "plasma membrane integrity (PI positive staining)", "setting": "[2]", "result": "induced plasma membrane disintegration"},
      {"measurement": "plasma membrane integrity (PI positive staining)", "setting": "[3]", "result": "induced plasma membrane disintegration"}
    ]},
    {"molecule": "COc1ccc(C(=O)N/N=C/c2c(O)cc(O)cc2/C=C/c2ccc(O)cc2)c(OC)c1", "note": "[6e, N′-((E)-2,4-dihydroxy-6-((E)-4-hydroxystyryl)benzylidene)-2,4-dimethoxybenzohydrazide]", "values": [
      {"measurement": "Cell cycle distribution G0/G1", "setting": "[4]", "result": 58.95, "unit": "%"},
      {"measurement": "Cell cycle distribution G2/M", "setting": "[4]", "result": 21.31, "unit": "%"}
    ]}
  ]
}
